Where two headings read alike, the source gives them in different places.
Biological target: T1, human APJ receptor (Homo sapiens, UniProt P35414)
T1 construct: expressed in transfected cells; host or cells: HEK293
T1 sequence (P35414 1-380): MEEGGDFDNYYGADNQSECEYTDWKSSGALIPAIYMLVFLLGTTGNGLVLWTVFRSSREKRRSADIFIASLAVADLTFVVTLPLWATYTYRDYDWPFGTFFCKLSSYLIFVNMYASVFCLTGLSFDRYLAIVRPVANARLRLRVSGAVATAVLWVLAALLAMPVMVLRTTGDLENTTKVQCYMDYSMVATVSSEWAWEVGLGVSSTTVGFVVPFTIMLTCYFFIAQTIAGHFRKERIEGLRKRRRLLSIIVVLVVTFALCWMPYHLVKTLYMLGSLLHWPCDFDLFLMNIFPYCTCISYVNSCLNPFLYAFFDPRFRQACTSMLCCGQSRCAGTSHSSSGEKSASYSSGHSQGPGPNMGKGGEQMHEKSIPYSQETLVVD
Test: Intracellular cAMP accumulation assay (APJ hcAMP, HTRF)
Format: cell-based
Conditions: HEK293 cells stably expressing human APJ receptor, inhibition of forskolin-mediated cAMP production, Table 1
Protocol: Intracellular cAMP Accumulation Assay
HEK293 cells stably expressing human APJ receptor were used to assess the activity of compounds. Cultured cells were detached and resuspended in the cAMP Homogeneous Time-Resolved Fluorescence (HTRF) assay buffer (Cisbio cat; #62AM4PEJ). The assay was performed in 384-well assay plates (Perkin-Elmer; cat #6008289) according to assay protocol provided by the manufacturer. Serial dilutions of a compound together with assay buffer containing […] IBMX and 2 μM forskolin were added to each well containing 5,000 cells and incubated for 30 minutes at room temperature. Subsequently, cAMP D2 reagent was added in the lysis buffer followed by the EuK antibody (Cisbio; cat #62AM4PEJ) and incubated for 60 min. The fluorescence emission ratio was measured using fluorometer. The intracellular cAMP concentrations (compound-stimulated inhibition of forskolin-mediated cAMP production) were calculated by extrapolation from a standard curve using known cAMP concentrations. The EC50 values were obtained by fitting the data to a sigmoidal concentration-response curve with variable slope. The maximal achievable inhibition of forskolin-induced cAMP levels (Ymax) for each compound was expressed as relative percentage of inhibition attained using pyroglutamated apelin-13 ((Pyr1)apelin-13) peptide, which was set to 100%.
The examples disclosed below were tested in the APJ in vitro assays described above and were found having human APJ cyclic AMP (hcAMP) activity. The EC50 value of each compound is presented at the end of the example description.
The biological activity of the exemplified compounds of this invention determined by the assay described above is shown at the end of each example.

[1] = read-out: hAPJ cAMP EC50 Potency range

`CCCCc1nc(O)c(S(=O)(=O)c2ccc(-c3ccncc3C)cc2)c(O)c1N(c1ccccc1)C(C)C` [Example 027, 6-butyl-5-(isopropyl(phenyl)amino)-3-((4-(3-methylpyridin-4-yl)phenyl)sulfonyl)pyridine-2,4-diol] showed an EC50 [1] of 0.01 to 10 nM.
Work on `CCCCc1nc(O)c(S(=O)(=O)c2ccc(-c3ccnc(F)c3C)cc2)c(O)c1N1CCCc2ccccc21` [Example 028, 6-butyl-5-(3,4-dihydroquinolin-1(2H)-yl)-3-((4-(2-fluoro-3-methylpyridin-4-yl)phenyl)sulfonyl)pyridine-2,4-diol] yielded an EC50 [1] of 0.01 to 10 nM.
`CCCCc1nc(O)c(S(=O)(=O)c2ccc(-c3ccnc(F)c3C)cc2)c(O)c1N(C)c1cccc(OC)c1` [Example 029, 6-butyl-3-((4-(2-fluoro-3-methylpyridin-4-yl)phenyl)sulfonyl)-5-((3-methoxyphenyl)(methyl)amino)pyridine-2,4-diol] showed an EC50 [1] of 0.01 to 10 nM.
In the case of `CCCCc1nc(O)c(S(=O)(=O)c2ccc(-c3ccc(F)nc3C)cc2)c(O)c1N(C)c1cccc(OC)c1` [Example 030, 6-butyl-3-((4-(6-fluoro-2-methylpyridin-3-yl)phenyl)sulfonyl)-5-((3-methoxyphenyl)(methyl)amino)pyridine-2,4-diol], the EC50 [1] is reported as 10 to 100 nM.
`CCCCc1nc(O)c(S(=O)(=O)c2ccc(-c3ccncc3C)cc2)c(O)c1N(C)c1cccc(OC)c1` [Example 031, 6-butyl-5-((3-methoxyphenyl)(methyl)amino)-3-((4-(3-methylpyridin-4-yl)phenyl)sulfonyl)pyridine-2,4-diol] gave an EC50 [1] of 10 to 100 nM.
For `CCCCc1nc(O)c(S(=O)(=O)c2ccc(-c3ccc(F)nc3C)cc2)c(O)c1N(C)c1ccc(OC)cc1` [Example 032, 6-butyl-3-((4-(6-fluoro-2-methylpyridin-3-yl)phenyl)sulfonyl)-5-((4-methoxyphenyl)(methyl)amino)pyridine-2,4-diol], the EC50 [1] was 10 to 100 nM.
`CCCCc1nc(O)c(S(=O)(=O)c2ccc(-c3cccnc3C)cc2)c(O)c1N(C)c1ccc(OC)cc1` [Example 035, 6-butyl-5-((4-methoxyphenyl)(methyl)amino)-3-((4-(2-methylpyridin-3-yl)phenyl)sulfonyl)pyridine-2,4-diol] showed an EC50 [1] of 10 to 100 nM.
Compound `CCCCc1nc(O)c(C(=O)N2CC[C@@H](c3ccccc3)C2)c(O)c1N(C)c1ccc(OC)cc1` [Example 036, (S)-(6-butyl-2,4-dihydroxy-5-((4-methoxyphenyl)(methyl)amino)pyridin-3-yl)(3-phenylpyrrolidin-1-yl)methanone] has an EC50 (hAPJ cAMP EC50 Potency range) of 10 to 100 nM.
Compound `CCCCc1nc(O)c(S(=O)(=O)c2ccc(-c3ccncc3C)cc2)c(O)c1N(C)c1ccc(OC)cc1` [Example 037, 6-butyl-5-((4-methoxyphenyl)(methyl)amino)-3-((4-(3-methylpyridin-4-yl)phenyl)sulfonyl)pyridine-2,4-diol] has an EC50 [1] of 0.01 to 10 nM.
`CCCCc1nc(O)c(S(=O)(=O)c2ccc(-c3ccnc(F)c3C)cc2)c(O)c1N(C)c1ccc(OC)cc1` [Example 038, 6-butyl-3-((4-(2-fluoro-3-methylpyridin-4-yl)phenyl)sulfonyl)-5-((4-methoxyphenyl)(methyl)amino)pyridine-2,4-diol] showed an EC50 [1] of 0.01 to 10 nM.
In the case of `CCCCc1nc(O)c(S(=O)(=O)c2ccc(-c3cccnc3C)cc2)c(O)c1N(C)c1cccc(OC)c1` [Example 039, 6-butyl-5-((3-methoxyphenyl)(methyl)amino)-3-((4-(2-methylpyridin-3-yl)phenyl)sulfonyl)pyridine-2,4-diol], the EC50 [1] is reported as 0.01 to 10 nM.
For `CCCCc1nc(O)c(S(=O)(=O)c2ccc(-c3cccnc3C)cc2)c(O)c1N1CCC(C)c2ccccc21` (stereo not drawn) [Example 042], the EC50 [1] was 10 to 100 nM.
For `CCCCc1nc(O)c(S(=O)(=O)c2ccc(-c3ccnc(F)c3C)cc2)c(O)c1N1CCC(C)c2ccccc21` (stereo not drawn) [Example 044, 6-butyl-3-((4-(2-fluoro-3-methylpyridin-4-yl)phenyl)sulfonyl)-5-(4-methyl-3,4-dihydroquinolin-1(2H)-yl)pyridine-2,4-diol], the EC50 [1] was 0.01 to 10 nM.
For `CCCCc1nc(O)c(C(=O)N2CC[C@@H](c3ccccc3)C2)c(O)c1N1CCC(C)c2ccccc21` (stereo partly drawn) [Example 045, (6-butyl-2,4-dihydroxy-5-(4-methyl-3,4-dihydroquinolin-1(2H)-yl)pyridin-3-yl)((S)-3-phenylpyrrolidin-1-yl)methanone], the EC50 [1] was 0.01 to 10 nM.
In the case of `CCCCc1nc(O)c(S(=O)(=O)c2ccc(-c3cccnc3C)cc2)c(O)c1N1c2ccccc2CCC1C` (stereo not drawn) [Example 046, 6-butyl-5-(2-methyl-3,4-dihydroquinolin-1(2H)-yl)-3-((4-(2-methylpyridin-3-yl)phenyl)sulfonyl)pyridine-2,4-diol], the EC50 [1] is reported as 0.01 to 10 nM.
`CCCCc1nc(O)c(S(=O)(=O)c2ccc(-c3ccc(F)nc3C)cc2)c(O)c1N1c2ccccc2CCC1C` (stereo not drawn) [Example 048, 6-butyl-3-((4-(6-fluoro-2-methylpyridin-3-yl)phenyl)sulfonyl)-5-(2-methyl-3,4-dihydroquinolin-1(2H)-yl)pyridine-2,4-diol] was tested, and the EC50 [1] was 0.01 to 10 nM.
`CCN(c1ccccc1)c1c(CC2CC2)nc(O)c(S(=O)(=O)c2ccc(-c3ccnc(F)c3C)cc2)c1O` [Example 049, 6-(cyclopropylmethyl)-5-(ethyl(phenyl)amino)-3-((4-(2-fluoro-3-methylpyridin-4-yl)phenyl)sulfonyl)pyridine-2,4-diol] was tested, and the EC50 [1] was 0.01 to 10 nM.
With `CCN(c1ccccc1)c1c(CC2CC2)nc(O)c(S(=O)(=O)c2ccc(-c3cccnc3C)cc2)c1O` [Example 050, 6-(cyclopropylmethyl)-5-(ethyl(phenyl)amino)-3-((4-(2-methylpyridin-3-yl)phenyl)sulfonyl)pyridine-2,4-diol] the EC50 [1] was 0.01 to 10 nM.
In the case of `CCN(c1ccccc1)c1c(CC2CC2)nc(O)c(S(=O)(=O)c2ccc(-c3ccc(F)nc3C)cc2)c1O` [Example 051, 6-(cyclopropylmethyl)-5-(ethyl(phenyl)amino)-3-((4-(6-fluoro-2-methylpyridin-3-yl)phenyl)sulfonyl)pyridine-2,4-diol], the EC50 [1] is reported as 0.01 to 10 nM.
`CCN(c1ccccc1)c1c(CC2CC2)nc(O)c(S(=O)(=O)c2ccc(-c3ccncc3C)cc2)c1O` [Example 052, 6-(cyclopropylmethyl)-5-(ethyl(phenyl)amino)-3-((4-(3-methylpyridin-4-yl)phenyl)sulfonyl)pyridine-2,4-diol] showed an EC50 [1] of 0.01 to 10 nM.
With `CCN(c1ccccc1)c1c(CC2CC2)nc(O)c(C(=O)N2CCC(c3ncc(F)cc3F)C2)c1O` (stereo not drawn) [Example 053, (6-(cyclopropylmethyl)-5-(ethyl(phenyl)amino)-2,4-dihydroxypyridin-3-yl)(3-(3,5-difluoropyridin-2-yl)pyrrolidin-1-yl)methanone] the EC50 (hAPJ cAMP EC50 Potency range) was 10 to 100 nM.
`CCCCc1nc(O)c(S(=O)(=O)c2ccc(-c3ccccc3C(=O)N(C)C)cc2)c(O)c1N1CCCc2ccccc21` [Example 054, 4′-((6-butyl-5-(3,4-dihydroquinolin-1(2H)-yl)-2,4-dihydroxypyridin-3-yl)sulfonyl)-N,N-dimethyl-[1,1′-biphenyl]-2-carboxamide] gave an EC50 [1] of 10 to 100 nM.
For `CCN(c1ccccc1)c1c(CC2CC2)nc(O)c(S(=O)(=O)c2ccc(-c3ccccc3C(=O)NC)cc2)c1O` [Example 055, 4′-((6-(cyclopropylmethyl)-5-(ethyl(phenyl)amino)-2,4-dihydroxypyridin-3-yl)sulfonyl)-N-methyl-[1,1′-biphenyl]-2-carboxamide], the EC50 [1] was 0.01 to 10 nM.
`CCN(c1ccccc1)c1c(-c2ccn(C)n2)nc(O)c(S(=O)(=O)c2ccc(-c3ccccc3C(=O)NC)cc2)c1O` [Example 056, 4′-((5-(ethyl(phenyl)amino)-2,4-dihydroxy-6-(1-methyl-1H-pyrazol-3-yl)pyridin-3-yl)sulfonyl)-N-methyl-[1,1′-biphenyl]-2-carboxamide] showed an EC50 [1] of 0.01 to 10 nM.
For `CCCCc1nc(O)c(S(=O)(=O)c2ccc(-c3ccccc3C(N)=O)cc2)c(O)c1N1CCCc2ccccc21` [Example 057, 4′-((6-butyl-5-(3,4-dihydroquinolin-1(2H)-yl)-2,4-dihydroxypyridin-3-yl)sulfonyl)-[1,1′-biphenyl]-2-carboxamide], the EC50 [1] was 0.01 to 10 nM.
For `CCN(c1ccccc1)c1c(-c2ccn(C)n2)nc(O)c(S(=O)(=O)c2ccc(-c3cccnc3C)cc2)c1O` [Example 058, 5-(ethyl(phenyl)amino)-6-(1-methyl-1H-pyrazol-3-yl)-3-((4-(2-methylpyridin-3-yl)phenyl)sulfonyl)pyridine-2,4-diol], the EC50 [1] was 0.01 to 10 nM.
`CCN(c1ccccc1)c1c(-c2ccn(C)n2)nc(O)c(S(=O)(=O)c2ccc(-c3ccc(F)nc3C)cc2)c1O` [Example 059, 5-(ethyl(phenyl)amino)-3-((4-(6-fluoro-2-methylpyridin-3-yl)phenyl)sulfonyl)-6-(1-methyl-1H-pyrazol-3-yl)pyridine-2,4-diol] showed an EC50 [1] of 0.01 to 10 nM.
